Entries after “also recorded” stand apart in the source; their conditions may differ. In the oligonucleotide strings, read from the 5' end, every base follows the letter of its sugar. An asterisk marks phosphorothioate; unmarked linkages are phosphodiester. Other units and linkages are bracketed, terminal groups are in braces. A string of capitals states the bases alone. d = 2'-deoxy (DNA)
Columns and labels:
[1] = tested on: steroid refractory/dependent IBD patients (ulcerative colitis and Crohn's disease); experiment: Human pilot proof of concept study in steroid resistant/dependent patients; format: in vivo; settings: for Clinical response at week 1, responders: 5/7 patients, on concomitant steroid therapies
Protocol: A small pilot study was conducted in steroid refractory/dependent IBD patients with the following objectives.
Primary objective: To assess the safety issues regarding the use of the DNA based oligonucleotide denoted as SEQ.ID.NO.1 in ulcerative colitis and Crohn's disease patients.
Secondary objective: To explore the clinical efficacy as determined by endoscopic and clinical remission/improvement rates, histological improvement and changes in clinical laboratory parameters.
The study was placebo controlled; double blinded single dose and considered patients that were unresponsive to corticosteroids or corticosteroid dependent who where on concomitant steroid therapies.
Doses levels used were 3 mg and 30 mg given as a single rectal administration

human PBMC = experiment: IL-10 induction from healthy human PBMC by SEQ.ID.NO 1 after dexamethasone pre-incubation (ELISA); format: cell-based
Protocol: ELISA assays where performed according to the manufactures recommended guidelines (R&D systems). Plates were analyzed using AID ELISpot reader system (Autoimmun Diagnostika GmbH, Strassberg Germany).
For this assay again 500,000 PBMC cells per well, derived from blood from healthy human donors, were incubated for 12 hours in the presence of various concentrations of dexamethasone, after which, the cells were washed and fresh medium as added. The cells were then allowed to further incubate in the presence of either 25 uM or 100 uM of SEQ.ID.NO 1 for an additional 24 hours after which levels of IL-10 were measured using a commercial available IL-10 ELISA kit.

[2] = single rectal administration 3 mg or 30 mg

“5′-G*G*A*ACAGTTCGTCCAT*G*G*C-3′ (DNA dG*dG*dA*dAdCdAdGdTdTdCdGdTdCdCdAdT*dG*dG*dC) [SEQ.ID.NO 1, (Hu p65)AS, CpG-containing ODN; * marks phosphorothioate linkage, others phosphodiester]” was tested, and the “time to response of responding patients” value ([1]; after single rectal administration) was “within a week”, the “patients still in remission and steroid free” value ([1]; of the 7 patients that received the drug) was “two from the 7 patients” and the serious adverse events [1, 2] was “no serious adverse events were recorded”. The “Clinical response at week 1, responders” value [1, 2] was 71%, the “Clinical response at week 1, responders” value ([1]; single rectal administration 3 mg or 30 mg, listed as Active) was 71% and the efficacy ([1]; single rectal administration, 3 mg and 30 mg dose groups) was “good efficacy in both dose groups”. For the same substance, the IL-10 production (human PBMC; 25 uM SEQ.ID.NO 1 for 24 hours after 12 hours prior incubation with dexamethasone) was “little production of IL-10” and the IL-10 production (human PBMC; 100 uM SEQ.ID.NO 1 for 24 hours after 12 hours prior incubation with dexamethasone (most apparent at 10^−10 M)) was “dramatic increase in the amount of IL-10 produced; also recorded: levels higher than either mono treatment alone”.

Reference: patent publication US8895522B2, “Composition and method for the prevention, treatment and/or alleviation of an inflammatory disease” (Index Pharmaceuticals AB, priority 2005, dated 2014)
